Test results taken from ChEMBL document CHEMBL1201862, “PubChem BioAssay data set” (2004).
The source made the active and inactive calls.

How the values were obtained:
[1] = target: T1, Adenosylmethionine-8-amino-7-oxononanoate aminotransferase (Mycobacterium tuberculosis, UniProt P9WQ81); experiment: Mycobacterium tuberculosis BioA enzyme inhibitor Measured in Biochemical System Using Plate Reader - 2163-02_Inhibitor_Dose_CherryPick_Activity.; assay type: functional, Mycobacterium tuberculosis UT205
T1 sequence (P9WQ81 whole entry): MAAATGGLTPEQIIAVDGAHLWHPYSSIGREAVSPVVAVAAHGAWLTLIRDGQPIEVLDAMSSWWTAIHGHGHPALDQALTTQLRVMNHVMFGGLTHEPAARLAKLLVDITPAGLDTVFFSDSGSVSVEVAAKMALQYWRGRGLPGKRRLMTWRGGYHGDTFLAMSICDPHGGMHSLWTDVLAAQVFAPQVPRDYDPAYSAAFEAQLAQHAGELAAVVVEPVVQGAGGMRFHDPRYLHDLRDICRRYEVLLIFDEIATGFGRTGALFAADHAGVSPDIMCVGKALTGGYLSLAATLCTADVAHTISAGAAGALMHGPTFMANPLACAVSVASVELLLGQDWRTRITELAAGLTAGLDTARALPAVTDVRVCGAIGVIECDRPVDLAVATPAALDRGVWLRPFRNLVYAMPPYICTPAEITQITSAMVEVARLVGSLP

[2] = blockers of HIV-1 envelope-mediated cell-cell fusion – cherry-pick, dose response (AID 652057); assay type: functional, cell-based
[3] = blockers of HIV-1 ZM109 envelope-driven cell-cell fusion – HeLa effector, CEM target cells, luciferase, cherry-pick, dose response (AID 652058); assay type: functional, cell-based;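 also: luciferase signal from HIV-1 Env mediated cell-cell fusion of effector and target cells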
[4] = off-target signal loss in HeLa-CEM21 co-culture – HeLa F-luc CTL cells, cherry-picked, counter-screen for HIV-1 Env fusion inhibitor project, dose response (AID 652040); assay type: functional, cell-based;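 also: potency for signal decrease marking cytotoxic or nonspecific inhibition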
[5] = HIV-1 AD8 envelope cell-cell fusion blockers – cherry-pick, dose response (AID 652062); assay type: functional, cell-based;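 also: luciferase signal from cell-cell fusion driven by HIV-1 clade B AD8 Env; potency is for inhibitors of fusion seen as a drop in luminescence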
[6] = target: Dual specificity tyrosine-phosphorylation-regulated kinase 1A (Rattus norvegicus, UniProt Q63470); assay type: biochemical, Homo sapiens
[7] = target: T2, Rac GTPase-activating protein 1 (Homo sapiens, UniProt Q9H0H5); experiment: blockers of MgcRacGAP-driven Rac1 GTP hydrolysis – biochemical, ADP Hunter fluorescence, primary and confirmatory, confirmation (AID 624330); assay type: functional
T2 sequence (Q9H0H5 whole entry): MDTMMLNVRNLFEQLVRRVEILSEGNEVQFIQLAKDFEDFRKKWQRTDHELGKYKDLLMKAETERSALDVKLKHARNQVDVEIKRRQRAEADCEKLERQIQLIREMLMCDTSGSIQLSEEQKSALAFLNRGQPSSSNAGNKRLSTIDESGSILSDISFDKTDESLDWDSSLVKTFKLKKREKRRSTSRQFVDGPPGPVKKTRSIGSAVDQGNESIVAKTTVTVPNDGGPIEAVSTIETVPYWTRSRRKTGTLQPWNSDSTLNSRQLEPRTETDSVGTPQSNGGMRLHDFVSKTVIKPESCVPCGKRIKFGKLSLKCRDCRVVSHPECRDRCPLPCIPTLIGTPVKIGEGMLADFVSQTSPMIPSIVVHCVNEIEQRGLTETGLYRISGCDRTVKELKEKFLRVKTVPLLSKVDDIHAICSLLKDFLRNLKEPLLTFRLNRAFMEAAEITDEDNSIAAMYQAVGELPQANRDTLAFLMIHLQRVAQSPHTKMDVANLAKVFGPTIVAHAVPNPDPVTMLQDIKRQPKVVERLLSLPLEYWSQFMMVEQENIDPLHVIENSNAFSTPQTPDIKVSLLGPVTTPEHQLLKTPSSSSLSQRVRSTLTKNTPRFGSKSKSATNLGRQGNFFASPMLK

HEK293 = experiment: EBV LMP1 TES2 canonical NF-kB signalling blockers – cell-based, HEK293, luciferase, cherry-pick, dose response (AID 588343); assay type: functional; settings: Homo sapiens
Caspase-3 = target: T3, Caspase-3 (Homo sapiens, UniProt P42574); assay type: functional;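 also: Dose-response selectivity test against caspase-3 for candidate inhibitors of sentrin-specific proteases (SENPs)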
T3 sequence (P42574 whole entry): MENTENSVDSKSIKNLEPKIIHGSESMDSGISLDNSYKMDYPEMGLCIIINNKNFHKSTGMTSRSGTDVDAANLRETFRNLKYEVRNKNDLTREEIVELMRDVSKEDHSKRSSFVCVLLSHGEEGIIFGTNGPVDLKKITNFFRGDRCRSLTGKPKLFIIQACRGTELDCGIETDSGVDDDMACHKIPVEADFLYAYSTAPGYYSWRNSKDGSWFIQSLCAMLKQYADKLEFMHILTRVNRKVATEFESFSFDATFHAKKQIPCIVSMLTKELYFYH

[8] = target: T4, Sentrin-specific protease 7 (Homo sapiens, UniProt Q9BQF6); assay type: functional;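 also: Luminescence-based dose-response confirmation of ultra-high-throughput screening hits, measuring inhibition of SENP7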
T4 sequence (Q9BQF6 whole entry): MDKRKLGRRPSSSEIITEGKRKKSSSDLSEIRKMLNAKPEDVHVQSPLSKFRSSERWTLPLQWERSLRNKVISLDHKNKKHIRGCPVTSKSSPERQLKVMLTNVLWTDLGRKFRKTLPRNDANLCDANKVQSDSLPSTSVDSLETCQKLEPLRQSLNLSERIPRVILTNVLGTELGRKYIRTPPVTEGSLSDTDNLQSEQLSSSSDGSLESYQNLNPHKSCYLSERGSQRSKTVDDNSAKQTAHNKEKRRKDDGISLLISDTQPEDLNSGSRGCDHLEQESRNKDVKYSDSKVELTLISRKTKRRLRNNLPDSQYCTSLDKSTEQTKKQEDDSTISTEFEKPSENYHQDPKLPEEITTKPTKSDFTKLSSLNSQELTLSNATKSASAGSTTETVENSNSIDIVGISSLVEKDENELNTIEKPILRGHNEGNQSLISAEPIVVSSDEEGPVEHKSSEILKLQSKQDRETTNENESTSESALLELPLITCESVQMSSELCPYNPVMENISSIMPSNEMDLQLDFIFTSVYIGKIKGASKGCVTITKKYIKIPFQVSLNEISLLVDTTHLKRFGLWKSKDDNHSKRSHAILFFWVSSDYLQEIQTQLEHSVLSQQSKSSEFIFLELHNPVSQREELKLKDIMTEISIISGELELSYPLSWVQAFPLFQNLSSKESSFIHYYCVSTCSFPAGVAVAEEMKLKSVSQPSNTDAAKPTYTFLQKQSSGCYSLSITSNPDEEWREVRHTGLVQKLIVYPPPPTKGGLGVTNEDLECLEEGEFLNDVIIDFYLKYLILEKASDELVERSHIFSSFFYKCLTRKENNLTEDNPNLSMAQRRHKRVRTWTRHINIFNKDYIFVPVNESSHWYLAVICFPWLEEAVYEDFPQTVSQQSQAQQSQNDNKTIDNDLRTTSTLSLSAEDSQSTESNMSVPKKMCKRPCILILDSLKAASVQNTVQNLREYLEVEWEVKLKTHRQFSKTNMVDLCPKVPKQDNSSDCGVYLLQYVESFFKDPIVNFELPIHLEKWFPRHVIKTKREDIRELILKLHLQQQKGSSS

[9] = target: T5, Sentrin-specific protease 6 (Homo sapiens, UniProt Q9GZR1); assay type: functional;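 also: Luminescence-based dose-response confirmatory assay of SENP6 inhibition, following up an ultra-high-throughput screen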
T5 sequence (Q9GZR1 whole entry): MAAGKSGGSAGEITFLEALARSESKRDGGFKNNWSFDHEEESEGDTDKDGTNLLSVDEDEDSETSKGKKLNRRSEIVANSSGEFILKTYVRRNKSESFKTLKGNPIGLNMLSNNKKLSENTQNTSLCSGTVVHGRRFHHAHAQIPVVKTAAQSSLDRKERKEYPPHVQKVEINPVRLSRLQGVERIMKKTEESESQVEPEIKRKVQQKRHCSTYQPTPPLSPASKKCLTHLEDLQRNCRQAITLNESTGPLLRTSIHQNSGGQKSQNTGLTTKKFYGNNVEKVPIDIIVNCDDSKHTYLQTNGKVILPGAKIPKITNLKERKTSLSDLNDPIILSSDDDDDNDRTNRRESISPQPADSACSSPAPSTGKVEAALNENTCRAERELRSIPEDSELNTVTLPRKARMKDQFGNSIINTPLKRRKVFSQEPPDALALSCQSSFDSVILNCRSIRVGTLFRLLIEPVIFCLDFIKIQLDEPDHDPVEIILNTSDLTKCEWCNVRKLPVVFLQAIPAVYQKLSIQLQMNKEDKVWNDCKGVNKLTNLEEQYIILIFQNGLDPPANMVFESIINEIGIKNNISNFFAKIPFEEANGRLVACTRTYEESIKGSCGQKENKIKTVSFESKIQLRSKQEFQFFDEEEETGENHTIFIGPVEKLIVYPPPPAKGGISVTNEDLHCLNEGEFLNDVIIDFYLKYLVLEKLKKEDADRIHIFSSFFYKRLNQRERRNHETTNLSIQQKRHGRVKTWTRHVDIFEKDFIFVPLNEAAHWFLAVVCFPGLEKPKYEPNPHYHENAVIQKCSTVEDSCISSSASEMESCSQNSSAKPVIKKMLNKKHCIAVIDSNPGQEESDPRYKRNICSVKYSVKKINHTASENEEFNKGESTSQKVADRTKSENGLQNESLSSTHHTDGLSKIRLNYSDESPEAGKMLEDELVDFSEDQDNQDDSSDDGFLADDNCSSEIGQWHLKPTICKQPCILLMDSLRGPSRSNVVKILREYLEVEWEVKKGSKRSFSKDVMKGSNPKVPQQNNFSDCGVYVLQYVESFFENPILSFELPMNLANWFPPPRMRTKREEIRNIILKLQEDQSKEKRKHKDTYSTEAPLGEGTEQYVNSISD

[10] = target: T6, Sentrin-specific protease 8 (Homo sapiens, UniProt Q96LD8); assay type: functional;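 also: luminescence read-out of SENP8 inhibition, dose-response confirmation following an ultra-high-throughput screen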
T6 sequence (Q96LD8 whole entry): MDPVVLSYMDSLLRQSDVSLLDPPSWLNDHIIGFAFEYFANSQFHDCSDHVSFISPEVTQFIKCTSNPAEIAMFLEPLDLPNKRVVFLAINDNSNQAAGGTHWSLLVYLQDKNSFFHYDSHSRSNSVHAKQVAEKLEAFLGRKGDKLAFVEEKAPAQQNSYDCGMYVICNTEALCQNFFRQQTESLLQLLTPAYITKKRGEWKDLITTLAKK

HeLa = experiment: ATP-based viability loss in HeLa cells – cell-based, CellTiter-Glo luminescence, cherry-pick samples, cytotoxicity control for MITF activator project, dose response (AID 540259); assay type: functional; settings: Homo sapiens
[11] = target: T7, Low molecular weight phosphotyrosine protein phosphatase (Homo sapiens, UniProt P24666); assay type: functional; settings: read-out: IC50_Mean;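 also: Dose-response confirmation assay measuring inhibition of LMPTP enzyme activity by fluorescence intensity read-out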
T7 sequence (P24666 whole entry): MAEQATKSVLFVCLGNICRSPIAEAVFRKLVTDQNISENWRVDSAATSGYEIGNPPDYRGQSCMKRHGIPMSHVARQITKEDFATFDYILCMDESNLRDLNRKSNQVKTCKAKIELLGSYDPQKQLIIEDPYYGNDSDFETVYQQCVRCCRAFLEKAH

Structure (SMILES): CC(=O)c1c(C)[nH]c(C(=O)Nc2cccnc2)c1C
- AC50 [1]: 3 µM (active)

Structure (SMILES): C[C@@]12C(=O)N(Cc3ccco3)CC(=O)N1[C@H]1c3ccccc3OC[C@@H]1[C@@H]2c1ccccc1
- AC50 [2]: 3.14 µM (active)
- AC50 [3]: 3.09 µM (active)
- AC50 [4]: 12.4 µM (active)

Structure (SMILES): C[C@@H]1CN([C@H](C)CO)C(=O)c2cc(C#Cc3cccnc3)cnc2O[C@H]1CN(C)S(C)(=O)=O
- AC50 [1]: 3.35 µM (active)

Structure (SMILES): CN(C)C(=O)C[C@@H]1C[C@H]2c3cc(NS(=O)(=O)c4ccc(F)cc4)ccc3O[C@H]2[C@H](CO)O1
- AC50 [5]: 3.41 µM (active)

Structure (SMILES): Fc1ccc(NC(S)=Nc2cccc3cnccc23)cc1
- AC50 [6]: 9.44 µM (active)

Structure (SMILES): CCOc1cc(-c2nc3ccccc3s2)ccc1O
- AC50 [6]: 5.92 µM (active)
- IC50 [7]: 33.4 µM (active)

Structure (SMILES): COc1ccc(C(=O)Nc2cccc(C(=O)N/N=C/c3ccc(OC)cc3OC)c2)cc1
- AC50 (HEK293): 1.79 µM (active)

Structure (SMILES): COc1ccc(F)cc1C(=O)C1CCCN(C(=O)c2ccc(C(C)=O)s2)C1 (configuration not stated)
- AC50 [1]: 1.06 µM (active)

Structure (SMILES): O=C(CCCC(=O)N(c1ccc2c(c1)OCCO2)C(C(=O)NC1CCCCC1)c1ccc(F)cc1)Nc1ccccn1 (configuration not stated)
- AC50 [2]: 6.87 µM (active)
- AC50 [3]: 4.52 µM (active)
- AC50 [4]: 42.5 µM (active)
- AC50 [5]: 31.9 µM (active)

Structure (SMILES): O=C(CSc1nnc(NC(=O)c2ccc3c(c2)OCO3)s1)NCc1ccco1
- AC50 (HEK293): 2.65 µM (active)

Structure (SMILES): Cn1c(C(=O)NCC2CCCO2)cc2c(=O)n(C)c3ccccc3c21 (configuration not stated)
- AC50 [6]: 13.4 µM (active)

Structure (SMILES): Cc1nc2ccccc2nc(C)c1=NOCc1cccc(Cl)c1
- AC50 [2]: 10.3 µM (active)
- AC50 [3]: 13 µM (active)
- AC50 [4]: 11.6 µM (active)
- AC50 [5]: 0.421 µM (active)

Structure (SMILES): Cc1ccc(O)c(C2=Nc3ccccc3C2(C)C)c1
- IC50 (Caspase-3): 22.5 µM (active)
- IC50 [8]: 4.9 µM (active)
- IC50 [9]: 18.2 µM (active)
- IC50 [10]: 26.9 µM (active)
- AC50 (HeLa): 31.6 µM (active)

Structure (SMILES): CN(C)c1ccc(/C=N/NC(=O)c2nnn(-c3nonc3N)c2COc2ccc(F)cc2)cc1
- IC50 [11]: 12 µM (active)
